Earlier results on six molecules are cited in US20080241273A1, “MASTIC GUM COMPOSITION FOR USE AS A DIETARY SUPPLEMENT IN HUMANS AND ANIMALS” (INTACT ENTERPRISES, INC., priority 2005, published 2008).

The conditions of series [1]: infusion, patients with lowered ionized magnesium.
For series [2] the following is noted: 6 mg/kg daily orally for up to 60 days.
The conditions of series [3]: type 1 and type 2 diabetes.
The conditions of series [4]: healthy individuals, oral.
The conditions of series [5]: hydrochloric acid titrated to a pH between 6 and 7.
For series [6] the following is noted: dogs.
The conditions of series [7]: oral, six weeks, daily dose of 15 mmol.

`[Mg+2]` [magnesium]: the “relief of acute migraine” value in series [1] was “rapid and sustained relief”. Moreover, in series [2], the “serum concentrations of calcium, magnesium, parathyroid hormone, calcitriol, osteocalcin” value is “increased significantly”.
Consider `O=S(=O)([O-])[O-].[O]=[V+2]` [vanadyl sulfate], for which, in series [3], the blood sugar result is reported as “reduced” and the insulin sensitivity result is “improved”.
Turning to magnesium citrate, the “in vivo absorption (rise in urinary magnesium levels)” value in series [4] is on record as “absorbed to a much greater extent than the oxide”. For the same molecule, the reprecipitation entry in series [5] is given as “did not occur”.
`C[C@H](O)C(=O)[O-].C[C@H](O)C(=O)[O-].O.O.[Mg+2]` [magnesium L-lactate dihydrate]: in series [6], the “bioavailability under decreased acidity” value was “did not impair”.
With magnesium lactate citrate, the bioavailability entry in series [7] is on record as “satisfactory”.
Consider `[O]=[Mg]` [magnesium oxide], for which the reprecipitation entry in series [5] is given as “did not occur”.
